Reference: US11198869B2, “Angelman syndrome antisense treatment” (The Texas A&M University System, priority 2017, dated 2021)

System: UBE3A-AS
Assay: UBE3A-AS RNA levels in CNS regions of Cynomolgus macaque after intrathecal lumbar puncture (SYBR Green qRT-PCR)
Type: in vivo, Cynomolgus macaque (Macaca fascicularis)
Settings: for UBE3A-AS RNA levels in CNS regions (in words) / Cohen's d, effect size on UBE3A-AS RNA levels in CNS: 10 mg single intrathecal bolus, 28 days; for Difference in UBE3A-AS RNA levels relative to vehicle: Cynomolgus macaque, single 10 mg intrathecal lumbar puncture, 28 days after treatment
Protocol: The ASO-4 and ASO-6 target regions are conserved across several non-human primate (NHP) species, thus enabling both safety and efficacy studies in a large animal model. To examine the efficacy of ASO-4.4.PS.L and ASO-6.1.PO-1.O in the central nervous system (CNS), ASOs were delivered to Cynomolgus macaques by intrathecal lumbar puncture. Animals were administered a single bolus injection of vehicle (0.9% saline, n=5), ASO-6.1.PO-1.O (10 mg, n=3), and ASO.4.4.PS.L (10 mg, n=3). Twenty-eight days following treatment, central nervous (CNS) tissues were collected and the steady state RNA levels of UBE3A-AS were measured.
NHP studies were performed at Northern Biomedical Research and Charles River Laboratories using protocols approved by the institutions respective Institutional Animal Care and Use Committees. Male and female Cynomolgus macaques (Macaca fascicularis) weighing 2-4 kg were anesthetized and single 1 mL dose of ASO or vehicle was administered via intrathecal lumbar puncture. The dosing solution was prepared by dissolution of lyophilized ASO in the vehicle control article (0.9% sodium chloride) and was filtered through a 0.2-μm filter. CNS and spinal cord samples were harvested, and the CNS was sectioned into 4-mm coronal slices. Tissue samples were flash frozen and stored at −80° C. until RNA isolation.
A 4 mm tissue punch was taken from each region of interest of which approximately half was used for RNA isolation. RNA isolation was performed using the Qiagen RNeasy Plus Mini kit (74136, Qiagen) with tissue disruption and lysis performed with 5 mm stainless steel beads in a TissueLyser II. The RNA was eluted in two volumes of 30 μl water, for a total elution volume of 60 μl. RNA was quantified using the Qubit with the RNA XR assay (Q33224, Thermo Fisher Scientific). cDNA was synthesized from 2 μg of input RNA using the High Capacity RNA-to-cDNA kit (4387406, Thermo Fisher Scientific) in a total reaction volume of 50 μl.
Cynomolgus macaque UBE3A-AS RNA levels were estimated using SYBR Green quantitative reverse-transcription PCR (qRT-PCR). Total reaction volume was 10 μl, including 2 μl of cDNA, 1× PowerUp SYBR Green Master mix (A25741, Thermo Fisher Scientific), and 500 nM of each primer (forward and reverse). Cycling conditions were 2 minutes at 50° C., 2 minutes at 95° C., and 40 cycles of 15 seconds at 95° C. and 1 minute at 60° C., with readings taken at the 60° C. step of every cycle. Reactions were run on a BIO-RAD T1000 CFX96 thermocycler, with internal control (PPIA, forward: […] (SEQ ID NO:503); reverse: […] (SEQ ID NO:504)) and target (UBE3A-AS, forward: […] (SEQ ID NO:505); reverse: […] (SEQ ID NO:506)) reactions performed separately. Data was retrieved and initial analysis was done with the BIORAD CFX Maestro software, with in depth statistical analyses performed with Excel and JMP.

[1] = Frontal Cortex (Corona radiata)

Substance	UBE3A-AS RNA levels in CNS regions (in words)	Cohen's d, effect size on UBE3A-AS RNA levels in CNS (versus Vehicle)	Difference in UBE3A-AS RNA levels relative to vehicle (Caudate Nucleus)	Difference in UBE3A-AS RNA levels relative to vehicle (Cerebellum)	Difference in UBE3A-AS RNA levels relative to vehicle [1]	Difference in UBE3A-AS RNA levels relative to vehicle (Frontal cortex)	Difference in UBE3A-AS RNA levels relative to vehicle (Globus Pallidus)	Difference in UBE3A-AS RNA levels relative to vehicle (Hippocampus)	Difference in UBE3A-AS RNA levels relative to vehicle (Medulla)	Difference in UBE3A-AS RNA levels relative to vehicle (Motor Cortex)	Difference in UBE3A-AS RNA levels relative to vehicle (Oculomotor Nucleus)	Difference in UBE3A-AS RNA levels relative to vehicle (Pons)	Difference in UBE3A-AS RNA levels relative to vehicle (Putamen)	Difference in UBE3A-AS RNA levels relative to vehicle (Spinal Cord (Lumbar))	Difference in UBE3A-AS RNA levels relative to vehicle (Temporal Lobe)	Difference in UBE3A-AS RNA levels relative to vehicle (Thalamus)	Cohen's d, effect size on UBE3A-AS RNA levels in CNS (versus ASO-6.1.PO-1.O)
C^O*U^O*G^O*G^O-t*g*t*c*a*a*c*a*a*g-C^O*C^O*A^O*A^o [ASO-6.1.PO-1.O]	reduced UBE3A-AS RNA levels in most CNS regions, with large effects observed in pons, oculomotor nucleus, and lumbar spinal cord	0.3	0.10	−0.11	−0.08	0.01	0.10	−0.19	−0.24	−0.19	−0.37	−0.27	0.07	−0.32	0.13	−0.02	–
A^L*G^L*A^L*a*t*g*g*c*a*c*a*t*c*t*5mC^L*T^L*T^L*G^L (NNNATGGCACATCTNNNN; LNA gapmer, PS, 5-methylcytosine, chemistry not fully specified) [ASO-4.4.PS.L]	reduced UBE3A-AS RNA in most CNS regions, with large effects in temporal lobe, primary motor cortex, pons, medulla, hippocampus, globus pallidus, frontal cortex (corona radiata), prefrontal cortex, and lumbar spinal cord	1.4	−0.21	−0.05	−0.62	−0.71	−0.38	−0.57	−0.32	−0.59	−0.18	−0.47	−0.04	−0.87	−0.59	−0.20	1.0
